Results: patent publication US9833497B2, “Human originated EGF domain proteins and use of the same” (CHENGDU SOURCEBIO LIMITED-LIABILITY COMPANY, priority 2013, dated 2017)

Columns and labels:
Format in all cases: cell-based
[1] = test system: Proteus vulgaris; experiment: MIC against Gram-negative bacteria: Proteus vulgaris; conditions: for MIC: P. vulgaris
In short: (§1)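 MIC = lowest concentration of recombinant protein showing no growth. Test proteins: purified human-derived EGF domain proteins, two-fold dilution series, three wells per concentration; inoculum 5×10^5 CFU/mL in LB; incubation 37° C with shaking at 175 rpm.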

[2] = test system: Proteus mirabilis; experiment: MIC against Gram-negative bacteria: Proteus mirabilis; conditions: for MIC: P. mirabilis
In short: as §1

[3] = test system: Enterobacter cloacae; experiment: MIC against Gram-negative bacteria: Enterobacter cloacae; conditions: for MIC: E. cloacae
In short: as §1

[4] = test system: Moraxella catarrhalis; experiment: MIC against Gram-negative bacteria: Moraxella catarrhalis; conditions: for MIC: M. catarrhalis
In short: as §1

[5] = test system: Aeromonas hydrophila; experiment: MIC against Gram-negative bacteria: Aeromonas hydrophila; conditions: for MIC: A. hydrophila
In short: as §1

[6] = test system: Pseudomonas aeruginosa; experiment: MIC against Gram-negative bacteria: Pseudomonas aeruginosa; conditions: for MIC: P. aeruginosa
In short: as §1

[7] = test system: E. coli BL21; experiment: MIC against Gram-negative bacteria: E. coli BL21
In short: as §1

[8] = test system: E. coli DH5α; experiment: Antibacterial activity: MIC and growth curve against E. coli DH5α in 96-well plate; conditions: minimal inhibitory concentration against E. coli DH5α; 96-well plate, 5×10^5 CFU/mL, 37° C., judged after 8 h
In short: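 Log-phase DH5α (OD600 about 0.5, 37° C, 185 rpm in LB) was pelleted, resuspended in fresh LB and seeded at 5×10^5 CFU/mL with recombinant protein at 50, 25 and 12.5 μg/mL (two-fold series), in triplicate. Plates were shaken at 175 rpm, 37° C, and OD600 was read every 30 min. MIC was the lowest concentration with no growth.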

[9] = test system: Citrobacter diversus; experiment: MIC against Gram-negative bacteria: Citrobacter diversus; conditions: for MIC: C. diversus
In short: as §1

[10] = test system: Klebsiella pneumonia; experiment: MIC against Gram-negative bacteria: Klebsiella pneumonia; conditions: for MIC: K. pneumonia
In short: as §1

[11] = test system: Serratia marcescens; experiment: MIC against Gram-negative bacteria: Serratia marcescens; conditions: for MIC: S. marcescens
In short: as §1

[12] = E. coli BL21, 10 h cultivation at 37° C.
[13] = Proteus vulgaris, 96-well plate, 5×10^5 CFU/mL, 37° C., 10 h
[14] = Proteus mirabilis, 96-well plate, 5×10^5 CFU/mL, 37° C., 10 h
[15] = Enterobacter cloacae, 96-well plate, 5×10^5 CFU/mL, 37° C., 10 h
[16] = Moraxella catarrhalis, 96-well plate, 5×10^5 CFU/mL, 37° C., 10 h
[17] = Aeromonas hydrophila, 96-well plate, 5×10^5 CFU/mL, 37° C., 10 h
[18] = Pseudomonas aeruginosa, 96-well plate, 5×10^5 CFU/mL, 37° C., 10 h
[19] = E. coli BL21, 96-well plate, 5×10^5 CFU/mL, 37° C., 10 h
[20] = Citrobacter diversus, 96-well plate, 5×10^5 CFU/mL, 37° C., 10 h
[21] = Klebsiella pneumonia, 96-well plate, 5×10^5 CFU/mL, 37° C., 10 h
[22] = Serratia marcescens, 96-well plate, 5×10^5 CFU/mL, 37° C., 10 h
[23] = 96-well plate, 5×10^5 CFU/mL, 37° C., 10 h
[24] = 10 h cultivation at 37° C., 5×10^5 CFU/mL

PRT956 (NIDDCAFASCTPGSTCIDRVASFSCMCPEGKAGLLCH; listed as Homo sapiens)
MIC ([1]; 10 h cultivation at 37° C.): 50 µg/mL
MIC ([2]; 10 h cultivation at 37° C.): 25 µg/mL
MIC ([3]; 10 h cultivation at 37° C.): 12.5 µg/mL
MIC ([4]; 10 h cultivation at 37° C.): 12.5 µg/mL
MIC ([5]; 10 h cultivation at 37° C.): 25 µg/mL
MIC ([6]; 10 h cultivation at 37° C.): 12.5 µg/mL
MIC [7, 12]: 12.5 µg/mL
MIC [8]: 12.5 µg/mL
MIC ([9]; 10 h cultivation at 37° C.): 25 µg/mL
MIC ([10]; 10 h cultivation at 37° C.): 25 µg/mL
MIC ([11]; 10 h cultivation at 37° C.): 25 µg/mL

PRT1232 (IGQQCPNMCSGHGSCDHGICRCDQGYQGTECH; listed as Homo sapiens)
MIC against P. vulgaris [1, 13]: 50 µg/mL
MIC against P. mirabilis [2, 14]: 25 µg/mL
MIC against E. cloacae [3, 15]: 25 µg/mL
MIC against M. catarrhalis [4, 16]: 12.5 µg/mL
MIC against A. hydrophila [5, 17]: 50 µg/mL
MIC against P. aeruginosa [6, 18]: 25 µg/mL
MIC against E. coli BL21 [7, 19]: 25 µg/mL
MIC [8]: 50 µg/mL
MIC against C. diversus [9, 20]: 25 µg/mL
MIC against K. pneumonia [10, 21]: 12.5 µg/mL
MIC against S. marcescens [11, 22]: 25 µg/mL

PRT1382 (GVRSCPRGCSQRGRCKDGRCVCDPGYTGEDC; listed as Homo sapiens)
MIC against P. vulgaris ([1]; Proteus vulgaris, 5×10^5 CFU/mL, 10 h cultivation at 37° C.): 25 µg/mL
MIC against P. mirabilis ([2]; Proteus mirabilis, 5×10^5 CFU/mL, 10 h cultivation at 37° C.): 12.5 µg/mL
MIC against E. cloacae ([3]; Enterobacter cloacae, 5×10^5 CFU/mL, 10 h cultivation at 37° C.): 50 µg/mL
MIC against M. catarrhalis ([4]; Moraxella catarrhalis, 5×10^5 CFU/mL, 10 h cultivation at 37° C.): 12.5 µg/mL
MIC against A. hydrophila ([5]; Aeromonas hydrophila, 5×10^5 CFU/mL, 10 h cultivation at 37° C.): 12.5 µg/mL
MIC against P. aeruginosa ([6]; Pseudomonas aeruginosa, 5×10^5 CFU/mL, 10 h cultivation at 37° C.): 50 µg/mL
MIC against E. coli BL21 ([7]; E. coli BL21, 5×10^5 CFU/mL, 10 h cultivation at 37° C.): 12.5 µg/mL
MIC [8]: 25 µg/mL
MIC against C. diversus ([9]; Citrobacter diversus, 5×10^5 CFU/mL, 10 h cultivation at 37° C.): 50 µg/mL
MIC against K. pneumonia ([10]; Klebsiella pneumonia, 5×10^5 CFU/mL, 10 h cultivation at 37° C.): 100 µg/mL
MIC against S. marcescens ([11]; Serratia marcescens, 5×10^5 CFU/mL, 10 h cultivation at 37° C.): 12.5 µg/mL

PRT945 (QLDECASNPCQHGATCSDFIGGYRCECVPGYQGVNCE; listed as Homo sapiens)
MIC ([1]; 10 h cultivation at 37° C.): 12.5 µg/mL
MIC ([2]; 10 h cultivation at 37° C.): 50 µg/mL
MIC ([3]; 10 h cultivation at 37° C.): 25 µg/mL
MIC ([4]; 10 h cultivation at 37° C.): 25 µg/mL
MIC ([5]; 10 h cultivation at 37° C.): 50 µg/mL
MIC ([6]; 10 h cultivation at 37° C.): 25 µg/mL
MIC [7, 12]: 50 µg/mL
MIC [8]: 25 µg/mL
MIC ([9]; 10 h cultivation at 37° C.): 12.5 µg/mL
MIC ([10]; 10 h cultivation at 37° C.): 12.5 µg/mL
MIC ([11]; 10 h cultivation at 37° C.): 25 µg/mL

PRT523 (CSCGRRLCEEMTGQCRCPPRTVRPQCEVCETHSFSFHPMAGCEG; listed as Homo sapiens)
MIC against P. vulgaris [1, 23]: 12.5 µg/mL
MIC against P. mirabilis [2, 23]: 50 µg/mL
MIC against E. cloacae [3, 23]: 12.5 µg/mL
MIC against M. catarrhalis [4, 23]: 12.5 µg/mL
MIC against A. hydrophila [5, 23]: 25 µg/mL
MIC against P. aeruginosa [6, 23]: 50 µg/mL
MIC against E. coli BL21 [7, 23]: 25 µg/mL
MIC [8]: 12.5 µg/mL
MIC against C. diversus [9, 23]: 50 µg/mL
MIC against K. pneumonia [10, 23]: 25 µg/mL
MIC against S. marcescens [11, 23]: 12.5 µg/mL

PRT415 (DINECLSISAPCPIGHTCINTEGSYTCQKNVPNCGRGYHLNEEGTRCV; listed as Homo sapiens)
MIC [1, 24]: 12.5 µg/mL
MIC [2, 24]: 25 µg/mL
MIC [3, 24]: 25 µg/mL
MIC [4, 24]: 50 µg/mL
MIC [5, 24]: 12.5 µg/mL
MIC [6, 24]: 25 µg/mL
MIC ([7]; E. coli BL21, 10 h cultivation at 37° C., 5×10^5 CFU/mL): 12.5 µg/mL
MIC [8]: 25 µg/mL
MIC [9, 24]: 25 µg/mL
MIC [10, 24]: 50 µg/mL
MIC [11, 24]: 25 µg/mL

PRT1247 (WGARCEHACQCQHGTCHPRSGACRCEPGWWGAQCA; listed as Homo sapiens)
MIC against P. vulgaris [1, 13]: 12.5 µg/mL
MIC against P. mirabilis [2, 14]: 25 µg/mL
MIC against E. cloacae [3, 15]: 12.5 µg/mL
MIC against M. catarrhalis [4, 16]: 12.5 µg/mL
MIC against A. hydrophila [5, 17]: 12.5 µg/mL
MIC against P. aeruginosa [6, 18]: 12.5 µg/mL
MIC against E. coli BL21 [7, 19]: 12.5 µg/mL
MIC [8]: 50 µg/mL
MIC against C. diversus [9, 20]: 25 µg/mL
MIC against K. pneumonia [10, 21]: 25 µg/mL
MIC against S. marcescens [11, 22]: 25 µg/mL
